Several values for one entry are separate records, joined by “and”; a condition that tells them apart may be missing. Equal entries are not always repeated. Where two headings read alike, the source gives them in different places.
Legend:
[1] = Stability (hydrolysis) in HeLa cell extracts; type: in vitro ADME; settings: 500 μM; cellulose tlc (solvents A and B)
Protocol: FIG. 2 is a stability representation of (2'-5')p3 A(pA)n and (2'-5')p3 3'dA(p3'dA)n in HeLa cell extracts.
The stability of (2'-5')ppp3'dA(p3'dA)n in HeLa cell extracts was compared to that of (2'-5')pppA(pA)n. […] With 500 μM (2'-5')pppA(pA)n, there was a 50% hydrolysis in 45 min as determined by DEAE cellulose chromatography; with 500 μM authentic core analog, (2'-5')3'dA(p3'dA)2, there was no hydrolysis as determined by cellulose tlc (solvents A and B). Neither cordycepin nor 3'dAMP was detected. The lack of hydrolysis of the analog may be similar to the lack of hydrolysis of (3'-5')2'-deoxyoligonucleotides by the 2',5'-phosphodiesterase.

Epstein-Barr Virus (EBV) [2] = assay: EBV-induced stimulation of DNA synthesis in EBV infected human lymphocytes; type: cell-based
Protocol: (§1) Heparinized whole venous blood was obtained from the umbilical cords of newborn infants (human umbilical cord lymphocytes) or EBV-seronegative volunteers (peripheral blood lymphocytes) in collaboration with Temple University Hospital, Philadelphia, PA. Mononuclear leukocytes were prepared by the Ficoll-Hypaque method of Boyum (Scand. J. Clin. Invest. 21 (Sup. 97), 77 (1968)) and were cultured in RPMI-1640 supplemented with 20% fetal bovine serum as described (Henderson et al, Virology 76, 152 (1977)). The lymphoblastoid cell lines BJAB and RAJI were gifts of Drs. Werner and Gertrude Henle, Children's Hospital, University of Pennsylvania, Philadelphia, PA, and were cultured as described above. The lymphoblastoid line C85-5C was obtained by transformation of human umbilical cord lymphocytes following infection with EBV and maintained as described aove. Cultured mouse L cells were maintained in minimum essential medium (Eagle) supplemented with Earle's salts, L-glutamine and 6% fetal bovine serum. Interferon-treated mouse L cells were supplied by Dr. Esther H. Chang, National Cancer Institute, NIH. […] EBV stocks were maintained at -70° C. until use. Human umbilical cord lymphocytes and peripheral blood lymphocytes were infected as described (Henderson et al, Supra).

uninfected lymphocytes = assay: DNA synthesis of uninfected lymphocytes; type: cell-based, human
Protocol: as §1
(§2) The antiviral properties of 5'-dephosphorylated "core" (2'-5')A(pA)2, (2'-5')A(pA)3 and (2'-5')3'dA-(p3'dA)2 were compared to the antiviral properties of IFN-α and IFN-β. The (2'-5')oligonucleotides and interferons inhibited Epstein-Barr Virus (EBV)-induced stimulation of DNA synthesis in EBV infected human lymphocytes. […] The "core" 3'-deoxy (2'-5') oligonucleotide analog inhibited EBV-induced morphological transformation of lymphocytes much the same as "core" (2'-5')A(pA)2 and (2'-5')A(pA)3.

Epstein-Barr Virus (EBV) [3] = assay: EBV-induced morphological transformation of lymphocytes; type: cell-based; settings: absence of interferon
Protocol: as §1, §2

[4] = system: Herpes Simplex Virus Type 1 (HSV-1); assay: Infected centers assay: HSV-1 exposed leukocytes plated onto human foreskin fibroblast monolayers, cytopathic effects (cpe); type: cell-based; settings: for development of cpe from HSV-1 infected leukocytes / HSV-1 replication: 72 hr incubation, human foreskin fibroblast monolayers
Protocol: Therefore, we employed an infected centers assay utilizing lymphocytes to determine the ability of (2'-5') oligonucleotides to inhibit HSV-1. After incubation for 72 hr with or without (2'-5')oligonucleotides, leukocytes exposed to HSV-1 were plated onto human foreskin fibroblast monolayers (Table 2).

[5] = system: BJAB lymphoblastoid cell line; assay: Cytotoxicity by colony formation in microtiter plates, BJAB; type: cell-based; settings: for Concentration at which colony formation was inhibited by greater than 50 percent: treatment for 7 days
Protocol: as §1
(§3) Therefore, the effect of these agents on colony formation in closely related lymphoblastoid cell lines was determined (Table 3).

[6] = system: Raji lymphoblastoid cell line; assay: Cytotoxicity by colony formation in microtiter plates, Raji; type: cell-based; settings: for Concentration at which colony formation was inhibited by greater than 50 percent: treatment for 7 days
Protocol: as §1, §3

[7] = system: C85-5C lymphoblastoid cell line; assay: Cytotoxicity by colony formation in microtiter plates, C85-5C; type: cell-based, human; settings: treatment for 7 days
Protocol: as §1, with “Human umbilical cord lymphocytes and peripheral blood lymphocytes were infected as described (Henderson et al, Supra).” left out
as §3

[8] = system: lymphoblastoid cell lines; assay: Lymphoblast colony formation / cytotoxicity, cell line not given; type: cell-based
Protocol: as §1, with “Mononuclear leukocytes were prepared by the Ficoll-Hypaque method of Boyum (Scand. J. Clin. Invest. 21 (Sup. 97), 77 (1968)) and were cultured in RPMI-1640 supplemented with 20% fetal bovine serum as described (Henderson et al, Virology 76, 152 (1977)).” left out
as §3

| Molecule | EBV-induced stimulation of DNA synthesis (Epstein-Barr Virus (EBV) [2]) | DNA synthesis of uninfected lymphocytes (uninfected lymphocytes) | EBV-induced morphological transformation of lymphocytes (Epstein-Barr Virus (EBV) [3]) | cpe at given number of HSV-exposed leukocytes per cell ([4]; 10 μM, 2 × 10^5 leukocytes) | cpe at given number of HSV-exposed leukocytes per cell ([4]; 10 μM, 2.2 × 10^4 leukocytes) | cpe at given number of HSV-exposed leukocytes per cell ([4]; 10 μM, 6.7 × 10^4 leukocytes) | cpe at given number of HSV-exposed leukocytes per cell ([4]; 50 μM, 2 × 10^5 leukocytes) | cpe at given number of HSV-exposed leukocytes per cell ([4]; 50 μM, 2.2 × 10^4 leukocytes) | cpe at given number of HSV-exposed leukocytes per cell ([4]; 50 μM, 6.7 × 10^4 leukocytes) | cpe at given number of HSV-exposed leukocytes per cell ([4]; 75 μM, 2 × 10^5 leukocytes) | cpe at given number of HSV-exposed leukocytes per cell ([4]; 75 μM, 2.2 × 10^4 leukocytes) | cpe at given number of HSV-exposed leukocytes per cell ([4]; 75 μM, 6.7 × 10^4 leukocytes) | cpe at given number of HSV-exposed leukocytes per cell ([4]; 150 μM, 2.2 × 10^4 leukocytes) | development of cpe from HSV-1 infected leukocytes / HSV-1 replication [4] | concentration found toxic (inhibition of colony formation) [5] | Concentration at which colony formation was inhibited by greater than 50 percent [5] [µM] | concentration found toxic (inhibition of colony formation) [6] | Concentration at which colony formation was inhibited by greater than 50 percent [6] [µM] | cpe at given number of HSV-exposed leukocytes per cell ([4]; 150 μM, 2 × 10^5 leukocytes) | cpe at given number of HSV-exposed leukocytes per cell ([4]; 150 μM, 6.7 × 10^4 leukocytes) | also measured |
| --- | --- | --- | --- | --- | --- | --- | --- | --- | --- | --- | --- | --- | --- | --- | --- | --- | --- | --- | --- | --- | --- |
| Nc1ncnc2c1ncn2[C@@H]1O[C@H](COP(=O)(O)O[C@@H]2C[C@@H](COP(=O)(O)O[C@@H]3C[C@@H](CO)O[C@H]3n3cnc4c(N)ncnc43)O[C@H]2n2cnc3c(N)ncnc32)C[C@H]1O [(2'-5')3'dA(p3'dA)2, 3'-deoxyadenylyl (2'-5')3'-deoxyadenylyl(2'-5')3'-deoxyadenosine] | inhibited only viral-induced DNA synthesis | inhibited only viral-induced DNA synthesis | inhibited | +++ | + | ++ | ++ | + | ++ | ++ | 0 | + | 0 | less effective in inhibiting the development of cpe | no toxicity | > 300 | no toxicity | > 300 | – | – | hydrolysis in HeLa cell extracts [1]: no hydrolysis; concentration found toxic (inhibition of colony formation) ([5]; listed as (2'-5')2'dA(p3'dA)3): > 300 µM; concentration found toxic (inhibition of colony formation) ([6]; listed as (2'-5')2'dA(p3'dA)3): > 300 µM |
| Nc1ncnc2c1ncn2[C@@H]1O[C@H](COP(=O)(O)O[C@@H]2[C@H](O)[C@@H](COP(=O)(O)O[C@@H]3[C@H](O)[C@@H](CO)O[C@H]3n3cnc4c(N)ncnc43)O[C@H]2n2cnc3c(N)ncnc32)[C@@H](O)[C@H]1O [(2'-5')A(pA)2, adenylyl-(2'-5')adenylyl(2'-5')adenosine] | potent inhibitors | potent inhibitors | inhibited | +++ | 0 | ++ | ++ | 0 | ++ | ++ | 0 | 0 | 0 | inhibited the development of cpe | 150 to 300 µM and 300 µM | 150 to 300 | 150 to 300 µM and 300 µM | 300 | + | 0 | – |
| Nc1ncnc2c1ncn2[C@@H]1O[C@H](COP(=O)(O)O[C@@H]2[C@H](O)[C@@H](COP(=O)(O)O[C@@H]3[C@H](O)[C@@H](COP(=O)(O)O[C@@H]4[C@H](O)[C@@H](CO)O[C@H]4n4cnc5c(N)ncnc54)O[C@H]3n3cnc4c(N)ncnc43)O[C@H]2n2cnc3c(N)ncnc32)[C@@H](O)[C@H]1O [(2'-5')A(pA)3, adenylyl(2'-5')adenylyl(2'-5')-adenylyl (2'-5')adenosine] | potent inhibitors | potent inhibitors | inhibited | ++ | 0 | + | + | 0 | 0 | ++ | 0 | 0 | 0 | inhibited the development of cpe | – | 150 | – | 50 | + | 0 | – |
| IFN-α | inhibited | – | – | – | – | – | – | – | – | – | – | – | – | – | – | – | – | – | – | – | Concentration at which colony formation was inhibited by greater than 50 percent [7]: > 1000 U/ml; cytotoxicity / effect on lymphoblast colony formation [8]: no appreciable effect |
